In US11660303B2, “2-phenylimidazo[4,5-b]pyridin-7-amine derivates useful as inhibitors of mammalian tyrosine kinase ROR1 activity” (KANCERA AB, priority 2016, dated 2023):

Tests used:
[1] = tested on: PBMC from healthy volunteers; assay: CellTiter-Blue Cell Viability Assay, PBMC from healthy volunteers; type: cell-based; settings: Homo sapiens, cell toxicity, culture 24, 48 and 72 h (time of the values not stated)
Description: (§1) The CellTiter-Blue® Cell Viability Assay provides a homogeneous, fluorometric method for estimating the number of viable cells present in multi-well plates. The assay uses the indicator dye resazurin to measure the metabolic capacity of cells. Viable cells retain the ability to reduce resazurin into resorufin, which is highly fluorescent.
(§2) Stock solutions (10 or 100 mM in DMSO) of compounds were serially diluted 1:2 in 11 concentrations and 25 nL/well (100 mM stock) or 50 nL/well (10 mM stock) were acoustically dispensed in assay plates with an EDC acoustic dispenser. Final starting concentration in the assay was 20 μM (0.2% DMSO) or 100 μM (0.1% DMSO) for test compounds.
(§3) Peripheral blood mononuclear cells (PBMC) from CLL patients or healthy volunteers were seeded in assay plates (384-well black/clear, Greiner #781091) pre-dispensed with compounds, 25 μL/well, and cultured for 24, 48 and 72 h. The cell concentration was 50 000 cells/well for PBMC from CLL patients or healthy volunteers. After 24, 48 and 72 h culture, Celltiter Blue reagent was added (5 μL/well) and the plates were incubated for 2 h. The plates were read in an Envision fluorescence reader (PerkinElmer) with Ex544 nm/Em590 nm. Results were calculated as % cytotoxicity compared to background (cells treated with 0.2% DMSO).
(§4) Thus, IC50 values for cell toxicity in PBMC from CLL patients as well as healthy volunteers for some compounds of the invention are shown in Table 3 as measured by the CellTiter-Blue® Cell Viability Assay.

[2] = tested on: PBMC from CLL patients; assay: CellTiter-Blue Cell Viability Assay, PBMC from CLL patients; type: cell-based; settings: Homo sapiens, cell toxicity, culture 24, 48 and 72 h (time of the values not stated)
Description: as §1, §2, §3, §4

Structure (SMILES) | IC50 [1] [nM] | IC50 [2] [nM]
CN1CCC(Nc2c(Cl)cnc3[nH]c(-c4ccc(N5CCN(C)CC5)cc4)nc23)CC1 [Example 2, 6-Chloro-2-[4-(4-methylpiperazin-1-yl)phenyl]-N-(1-methylpiperidin-4-yl)-3H-imidazo[4,5-b]pyridin-7-amine] | > 20000 | 160
CCN1CCN(c2ccc(-c3nc4c(NC5CCN(C)CC5)c(Br)cnc4[nH]3)cc2)CC1 [Example 10, 6-Bromo-2-[4-(4-ethylpiperazin-1-yl)phenyl]-N-(1-methylpiperidin-4-yl)-3H-imidazo[4,5-b]pyridin-7-amine] | > 20000 | 110
COCCN1CCN(c2ccc(-c3nc4c(NC5CCN(Cc6ccc(OC)cc6)CC5)c(Cl)cnc4[nH]3)cc2)CC1 [Example 14, 6-Chloro-N-[1-(4-methoxybenzyl)piperidin-4-yl]-2-{4-[4-(2-methoxyethyl)piperazin-1-yl]phenyl}-3H-imidazo[4,5-b]pyridin-7-amine] | 15600 | 420
CN1CCC(Nc2c(Br)cnc3[nH]c(-c4ccc(N5CCN(c6ccncc6)CC5)cc4)nc23)CC1 [Example 16, 6-Bromo-N-(1-methylpiperidin-4-yl)-2-[4-(4-pyridin-4-ylpiperazin-1-yl)phenyl]-3H-imidazo[4,5-b]pyridin-7-amine] | 17200 | 80
CN1CCC(Nc2c(Cl)cnc3[nH]c(-c4ccc(N5CCCN(C)CC5)cc4)nc23)CC1 [Example 22, 6-Chloro-2-[4-(4-methyl-1,4-diazepan-1-yl)phenyl]-N-(1-methylpiperidin-4-yl)-3H-imidazo[4,5-b]pyridin-7-amine] | 18600 | 170
CN1CCC(Nc2c(Cl)cnc3[nH]c(-c4ccc(N5CCOCC5)cc4)nc23)CC1 [Example 27, 6-Chloro-N-(1-methylpiperidin-4-yl)-2-(4-morpholin-4-ylphenyl)-3H-imidazo[4,5-b]pyridin-7-amine] | 17700 | 90
COc1ccc(CN2CCC(Nc3c(Cl)cnc4[nH]c(-c5ccc(N6CCN(C(C)=O)CC6)cc5)nc34)CC2)cc1 [Example 35, 2-[4-(4-Acetylpiperazin-1-yl)phenyl]-6-chloro-N-[1-(4-methoxybenzyl)piperidin-4-yl]-3H-imidazo[4,5-b]pyridin-7-amine] | > 20000 | 430
CN1CCC(Nc2c(Cl)cnc3[nH]c(-c4ccc(N5CCNC(=O)C5)cc4)nc23)CC1 [Example 37, 4-(4-{6-Chloro-7-[(1-methylpiperidin-4-yl)amino]-3H-imidazo[4,5-b]pyridin-2-yl}phenyl)piperazin-2-one] | > 20000 | 290
COc1ccc(CN2CCC(Nc3c(Cl)cnc4[nH]c(-c5ccc(N6CCN(S(C)(=O)=O)CC6)cc5)nc34)CC2)cc1 [Example 44, 6-Chloro-N-[1-(4-methoxybenzyl)piperidin-4-yl]-2-{4-[4-(methylsulfonyl)piperazin-1-yl]phenyl}-3H-imidazo[4,5-b]pyridin-7-amine] | > 20000 | 440
CCN1CCC(Nc2c(Br)cnc3[nH]c(-c4ccc(N5CCNC(=O)CC5)cc4)nc23)CC1 [Example 53, 1-(4-{6-Bromo-7-[(1-ethylpiperidin-4-yl)amino]-3H-imidazo[4,5-b]pyridin-2-yl}phenyl)-1,4-diazepan-5-one] | > 20000 | 480
COCCN1CCCN(c2ccc(-c3nc4c(NC5CCN(C(C)C)CC5)c(Cl)cnc4[nH]3)cc2)CC1 [Example 63, 6-Chloro-2-{4-[4-(2-methoxyethyl)-1,4-diazepan-1-yl]phenyl}-N-[1-(1-methylethyl)piperidin-4-yl]-3H-imidazo[4,5-b]pyridin-7-amine] | > 20000 | 960
CCOCCN1CCN(c2ccc(-c3nc4c(NC5CCN(CC)CC5)c(Cl)cnc4[nH]3)cc2)CC1 [Example 70, 6-Chloro-2-{4-[4-(2-ethoxyethyl)piperazin-1-yl]phenyl}-N-(1-ethylpiperidin-4-yl)-3H-imidazo[4,5-b]pyridin-7-amine] | > 20000 | 160
Clc1cnc2[nH]c(-c3ccc(N4CCOCC4)cc3)nc2c1NC1CCN(Cc2cccs2)CC1 [Example 83, 6-Chloro-2-(4-morpholin-4-ylphenyl)-N-[1-(thiophen-2-ylmethyl)piperidin-4-yl]-3H-imidazo[4,5-b]pyridin-7-amine] | > 20000 | 1000
CC(C)OCCN1CCN(c2ccc(-c3nc4c(NC5CCN(Cc6ccc(N(C)C)cc6)CC5)c(Cl)cnc4[nH]3)cc2)CC1 [Example 90, 6-Chloro-N-{1-[4-(dimethylamino)benzyl]piperidin-4-yl}-2-(4-{4-[2-(1-methylethoxy)ethyl]piperazin-1-yl}phenyl)-3H-imidazo[4,5-b]pyridin-7-amine] | > 20000 | 870
CN1CCC(Nc2c(Cl)cnc3[nH]c(-c4ccc(N5CCN(Cc6ccccn6)CC5)cc4)nc23)CC1 [Example 98, 6-Chloro-N-(1-methylpiperidin-4-yl)-2-{4-[4-(pyridin-2-ylmethyl)piperazin-1-yl]phenyl}-3H-imidazo[4,5-b]pyridin-7-amine] | > 20000 | 60
COCCN1CCN(c2ccc(-c3nc4c(NC5CCN(Cc6ccc(O)c(OC)c6)CC5)c(Cl)cnc4[nH]3)cc2)CC1 [Example 103, 4-({4-[(6-Chloro-2-{4-[4-(2-methoxyethyl)piperazin-1-yl]phenyl}-3H-imidazo[4,5-b]pyridin-7-yl)amino]piperidin-1-yl}methyl)-2-methoxyphenol] | > 20000 | 350
CN1CCC(Nc2c(Br)cnc3[nH]c(-c4ccc(N5CCN(Cc6ccccn6)CC5)cc4)nc23)CC1 [Example 115, 6-Bromo-N-(1-methylpiperidin-4-yl)-2-{4-[4-(pyridin-2-ylmethyl)piperazin-1-yl]phenyl}-3H-imidazo[4,5-b]pyridin-7-amine] | 16200 | 40
Cc1noc(C)c1CN1CCN(c2ccc(-c3nc4c(NC5CCN(C)CC5)c(Cl)cnc4[nH]3)cc2)CC1 [Example 119, 6-Chloro-2-(4-{4-[(3,5-dimethylisoxazol-4-yl)methyl]piperazin-1-yl}phenyl)-N-(1-methylpiperidin-4-yl)-3H-imidazo[4,5-b]pyridin-7-amine] | 17000 | 40
CN1CC[C@H](Nc2c(Cl)cnc3[nH]c(-c4ccc(N5CCN(Cc6ccncc6)CC5)cc4)nc23)C1 [Example 126, 6-Chloro-N-[(3S)-1-methylpyrrolidin-3-yl]-2-{4-[4-(pyridin-4-ylmethyl)piperazin-1-yl]phenyl}-3H-imidazo[4,5-b]pyridin-7-amine] | > 20000 | 130
CCN1CCC(Nc2c(Cl)cnc3[nH]c(-c4ccc(N5CCN(Cc6cccc(C)n6)CC5)cc4)nc23)CC1 [Example 142, 6-Chloro-N-(1-ethylpiperidin-4-yl)-2-(4-{4-[(6-methylpyridin-2-yl)methyl]piperazin-1-yl}phenyl)-3H-imidazo[4,5-b]pyridin-7-amine] | 14800 | 240
CC(C)N1CCC(Nc2c(Br)cnc3[nH]c(-c4ccc(N5CCN(Cc6ccncc6)CC5)cc4)nc23)CC1 [Example 151, 6-Bromo-N-[1-(1-methylethyl)piperidin-4-yl]-2-{4-[4-(pyridin-4-ylmethyl)piperazin-1-yl]phenyl}-3H-imidazo[4,5-b]pyridin-7-amine] | 13700 | 390
